# From article PMC9142922, “Galactosylated Prodrugs: A Strategy to Improve the Profile of Nonsteroidal Anti-Inflammatory Drugs” (Pharmaceuticals, 2022)
# Marks after values point to notes of the source that are not given here.
# What was measured:
# [1] = Ex vivo permeation across excised rat small intestine (non-everted intestinal sac); type: in vitro ADME, male Wistar rats; settings: compound filled into the sac, 5 mg/Kg in PBS + methocel 3%, 37 °C, 2 h; for Fraction Absorbed (Fa) ± SE, Duodenum: rat duodenum; for Fraction Absorbed (Fa) ± SE, Ileum: rat ileum; for Fraction Absorbed (Fa) ± SE, Jejunum: rat jejunum
# Experimental: The permeability of the galactosylated prodrugs and the parent drugs through the rat small intestine was assessed ex vivo using the non-everted intestinal sac method. Despite some shortcomings (e.g., the interruption of normal blood flow, lack of a nervous system) this test is widely used to investigate the passive absorption of molecules and can provide further data when equipped with a mucus layer, which includes proteins of drug transport and metabolism.
# A suspension of the tested compounds (5 mg/Kg in PBS + methocel 3%) was syringed into intestinal sacs that consisted of different segments of rat small intestine (duodenum, jejunum, ileum). The compound-enriched tissues were incubated at 37 °C for 2 h.
# In order to verify the presence of the galactosylated compounds in the intestinal tissues, the intestinal sacs were opened at the end of the incubation period, washed with fresh buffer and homogenized in ethanol and the supernatant was dried. The concentrations of the galactosylated prodrugs and the prodrug-derived parent drugs were quantified using RP-HPLC (Figure 3a–d).
# An evaluation of ex vivo absorption was carried out using permeation measurements in excised rat small intestines, as previously published, with some modifications. Briefly, male Wistar rats (200–250 g) were anesthetized with isoflurane, decapitated and exsanguinated. Freshly excised rat duodenum, jejunum and ileum tissue was washed with Krebs–Ringer buffer (KRB) and cut into pieces of 4–5 cm. Then, 0.2 mL of a suspension containing the compounds (5 mg/Kg, PBS + Methocel 3%) were syringed into intestinal sacs and the compound-enriched tissues were incubated in oxygenated KRB (10 mL) at 37 °C with smooth shaking. […] Tests were carried out in triplicate for each compound on three intestinal segments from three different rats. The concentration in the incubation buffer was quantified via RP-HPLC, as reported above.
# At the end of the incubation period, the intestinal sacs were opened, washed with fresh buffer, homogenized in ethanol (1 mL, UltraTurrax) and centrifuged at 13,000× g for 5 min and the supernatant was dried with nitrogen. After resolubilization in 0.5 mL of methanol, the concentrations of the galactosylated prodrugs and prodrug-derived parent drugs were quantified using RP-HPLC.
# [2] = tested on: acetic-acid-induced writhing in mice; assay: Acetic-acid-induced writhing test; type: in vivo, CD1 mice; settings: oral IbuGAL 17.8, IndoGAL 14.5, OkyGAL 16.4, FluGAL 16.7 mg/kg; 0.6% acetic acid i.p.; 48 h
# Experimental: The number of acetic-acid-induced abdominal stretches can be evaluated in Figure 3. Control mice received an intraperitoneal injection of 0.6% acetic acid (10 mL/kg). […]
# Figure 5 (a–d). Total number of writhing episodes within 20 min after acetic acid injection. […] Data are expressed as means ± S.E.M. of 6 animals. *** p < 0.001, ** p < 0.01 vs. Control.
# The acetic-acid-induced writhing test was performed as reported previously. […] The number of abdominal constrictions and extensions of the trunk and hind limbs were counted for each group of mice, starting from 5 min after the injection of acetic acid up to 20 min afterwards, and expressed as the number of writhing episodes.
# [3] = Distribution coefficient n-octanol/PBS pH 7.4, shake-flask; type: physicochemical; settings: room temperature, mean ± SD
# Excerpt: Lipophilicity is the key physicochemical parameter that influences solubility and various other aspects of the pharmacokinetic and pharmacodynamic profile of drugs. The hydrophilic-lipophilic behavior of galactosylated prodrugs and parent drugs was investigated by measuring the distribution coefficients (log D^pH) in n-octanol-phosphate buffered saline (PBS, pH 7.4) using the shake-flask technique.
# Each log D value is an average of a minimum of six measurements.
# [4] = tested on: NSAID-induced gastric damage in mice; assay: Ulcerogenicity study (gastric lesion score); type: in vivo, CD1 mice; settings: fasted mice, oral, parent 10 mg/kg or equimolecular prodrug, score 0 irritation, 1 lesions 1-2 mm, 2 lesions 2-3 mm, 3 lesions >3 mm; for Gastric Lesion Score (4 h): 4 h after treatment; for Gastric Lesion Score (48 h): 48 h after treatment
# Experimental: NSAID-induced gastric damage in mice was evaluated following the procedure described by Chan et al.. […] The mucosa was then examined by means of a magnifying glass for the presence of irritation or frank hemorrhagic lesions (ulcers). Irritation was assigned a score of 0, and ulcerations were scored according to their length (a score of 1 for lesions with a length between 1 and 2 mm, a score of 2 for lesions with a length between 2 and 3 mm, a score of 3 for lesions greater than 3 mm). The sum of total scores was used for comparison.
# [5] = Serum protein binding by ultrafiltration; type: in vitro ADME; settings: male, human serum, 1 h at 37 °C, mean ± SD, read-out: Serum Protein Binding % Bound (converted)
# Experimental: The serum protein binding properties of the galactosylated prodrugs and parent drugs were investigated using ultrafiltration. The compounds were incubated in human serum, and after 1 h, the concentrations of the compounds in the ultrafiltrate and the original serum were determined by means of RP-HPLC, and used to calculate the binding percentages, which are reported in Table 2.
# Free- and protein-bound drug separation was obtained via ultrafiltration using commercially available membrane systems (Centrifree ultrafiltration devices with ultracel YM-T membrane, Merck, KGaA, Darmstadt, Germany). […] One milliliter of the solution was inserted into the sample reservoir of the ultrafiltration device and gently shaken in an orbital shaker for 1 h at 37 °C. […] The concentration of the compound both in the ultrafiltrate and filtrate was analyzed via RP-HPLC under the chromatographic conditions described above and using the calibration curves of standard solutions. […] The recovery of the ultrafiltration process was calculated to observe any possible compound loss during the operations in view of the limited solubility of the tested compounds.
# [6] = tested on: carrageenan-induced paw edema in mice; assay: Carrageenan-induced paw edema / hyperalgesia; type: in vivo, CD1 mice; settings: oral; parent drugs 10 mg/kg, equimolecular IbuGAL 17.8, IndoGAL 14.5, OkyGAL 16.4, FluGAL 16.7 mg/kg
# Experimental: We tested the anti-inflammatory response of the parent drugs and their relative galactosylated prodrugs by subcutaneously injecting λ-carrageenan (1% (w/v) in sterile saline, 20 μL) into the hind paws of mice.
# Figure 4 (a–d). […] White circles represent control mice treated with vehicle. […] The increase in paw volume was evaluated and is expressed as the difference in paw volume measured at each time point and the basal paw volume measured immediately before carrageenan injection. Data are expressed as means ± S.E.M. of 6 animals. *** p < 0.001, ** p < 0.01 and […] vs. Control.
# Carrageenan-induced paw edema was induced by injecting λ-carrageenan (1% w/v in sterile water, 20 μL) subcutaneously into the hind paws of mice using a 27 gauge needle. […] The increase in paw volume was evaluated using a plethysmometer (Ugo Basile, Milan, Italy) and reported as the difference between the paw volume measured at each time point and the basal paw volume measured immediately before carrageenan injection.
# [7] = Stability in human serum at 37 °C; settings: for degradation in human serum in 24 h / Stability at 37 °C, % compound after 24 h of incubation, Human Serum: 37 °C; for half-life at 200 µM: male, human; for Stability at 37 °C, % compound after 24 h of incubation, Human Serum: unmodified incubated compound, 200 µM, mean ± SD
# Experimental: A solution of each compound (10 mM in DMSO) was added to human serum (sterile-filtered from human male AB plasma, USA origin, sterile-filtered, Sigma-Aldrich) and preheated and maintained at 37 °C ± 0.5 °C. Three-hundred microliters of the resulting solutions (200 µM) was withdrawn at appropriate time intervals and added to 300 µL of CH3CN, which contained 0.1% TFA, in order to deproteinize the serum. […] Each clear supernatant was filtered using 0.45 µm PTFE filters (VWR International S.r.l., Milano, Italy) and analyzed via RP-HPLC as described below.
# The reverse-phase HPLC procedure allowed the galactosylated prodrugs and their parent drugs to be separated and quantified. […] The analytical column was a ZORBAX Eclipse XDB-C8 (150 × 4.6 mm, 5 µm; Agilent, Santa Clara, CA, USA). The mobile phase consisted of 0.1% aqueous TFA and 0.1% TFA CH3CN 50/50 w/w% at a flow rate of 1.0 mL/min. The injection volume was 20 µL (Rheodyne, Cotati, CA, USA). The column effluent was monitored at 228 nm and 254 nm, referenced against an 800 nm wavelength. The quantitation of compounds was calculated using calibration curves and the linearity of the calibration curves was determined in a concentration range of 1–100 µM (r^2 > 0.99).
SMILES,"Fraction Absorbed (Fa) ± SE, Duodenum [1]","Fraction Absorbed (Fa) ± SE, Ileum [1]","Fraction Absorbed (Fa) ± SE, Jejunum [1]",writhing responses after 48 h vs control [2],logD [3],Gastric Lesion Score (4 h) [4],Gastric Lesion Score (48 h) [4],"fraction unbound at 1 h, 100 µM [5]",effect on carrageenan-induced paw edema/hyperalgesia during the first phase (0–6 h) [6],degradation in human serum in 24 h [7] [%],half-life at 200 µM [7] [h],"Stability at 37 °C, % compound after 24 h of incubation, Human Serum [7] [%]"
CC(C(=O)OC[C@H]1OC(O)[C@H](O)[C@@H](O)[C@H]1O)c1ccc(-c2ccccc2)c(F)c1 (stereo partly drawn) [FluGAL],0.060 ± 0.014,0.033 ± 0.008,0.031 ± 0.015,significant decrease,1.89 ± 0.09,0 **,0.5,0.039,did not change,~50,~24,57.3 ± 1.4
CC(C)Cc1ccc(C(C)C(=O)OC[C@H]2OC(O)[C@H](O)[C@@H](O)[C@H]2O)cc1 (stereo partly drawn) [IbuGAL],0.013 ± 0.006,0.031 ± 0.016,0.026 ± 0.014,significant decrease,1.73 ± 0.04,0 **,1,0.028,did not change,~50,~24,54.1 ± 2.2
